# Source: ChEMBL document CHEMBL1146285, “Trimethylsilylpyrazoles as novel inhibitors of p38 MAP kinase: a new use of silicon bioisosteres in medicinal chemistry” (Bioorg Med Chem Lett, 2007)
# How the values were obtained:
# [1] = Metabolic stability in human liver microsomes at 1 uM after 40 mins; type: ADME, Microsome; settings: read-out: Stability
# Mus musculus [2] = assay: Suppression of lipopolysaccharide-induced TNFalpha release in mouse at 10 mg/kg, po after 30 mins; type: functional
# Mus musculus [3] = assay: Suppression of lipopolysaccharide-induced TNFalpha release in mouse at 10 mg/kg, po after 120 mins; type: functional
# [4] = Distribution coefficient, log D at pH 7.4; type: physicochemical; settings: octanol/water
# [5] = Partition coefficient, log P of the compound; type: physicochemical; settings: octanol/water
# [6] = Distribution coefficient, log D at pH 6.5; type: physicochemical; settings: octanol/water
# [7] = Distribution coefficient, log D at pH 6.0; type: physicochemical; settings: octanol/water
compound,measurement,setting,value
Cc1ccc(-n2nc(C(C)(C)C)cc2NC(=O)Nc2ccc(OCCN3CCOCC3)c3ccccc23)cc1 [DORAMAPIMOD],"remaining at 40 min, 1 µM",[1],79%
same,Activity,Mus musculus [2],-41%
same,Activity,Mus musculus [3],-40%
same,logD,[4],5.1
same,logP,[5],5.2
same,logD,[6],4.9
same,logD,[7],4.6
